Experimental data taken from patent US10723751B2 (priority 2013, dated 2020).
Where two headings read alike, the source gives them in different places.

How the values were obtained:
[1] = test system: Kennel cough, Giardia and Isospora infections; assay: Treatment of Kennel cough, Giardia and Isospora infections in a dog
Candida albicans = assay: Treatment of recurring Candida albicans vaginal yeast infection; format: in vivo, human
Excerpt: A volunteer 57 kg body weight with frequent recurring vaginal Candida albicans infection was diagnosed and treated by their gynecologist over a period of 15 years. The reccurrence frequency was 2-3 flare ups every year for the past 15 years. […] However, 3-6 months later the infection would again appear. Chlorhexidine wash was also tried to prevent recurrence to no effect.
No flare-up has been detected for at least three years. No other treatment was used since there had been no recurrence.

[2] = known substances; cited from earlier work
herpes simplex labialis = assay: Treatment of herpes simplex labialis; format: in vivo, human
Excerpt: A volunteer, 54 kg suffered from recurring herpes outbreaks on the lip. The outbreaks happened about every two years and were associated with immune compromised conditions like stress, concurrent upper respiratory infection and menstrual cycles. The outbreaks last approximately 7-9 days and no spontaneous remission of an outbreak had occurred.
The outbreaks always followed a predictable progression and included a tingling sensation, redness and swelling of about 5 mm area on upper right side middle of the lip and 2-4 days after the onset blisters appear that turns into a scab that last about 5 days. The only medicine that could slightly alter this course was Zovirax crema/acyclovir/if the treatment began at the first sign of an outbreak. No other medicine had any effect on alleviating symptoms. With the treatment of Zovirax the blister size smaller (about 4 mm in diameter) and the duration of the outbreak was shorter (to approximately 5 days).
Topical and oral cyanogenic composition medications were applied simultaneously with no other medication.

Pseudomonas Aeruginosa = assay: Aerobic Culture and Mic from ear swab
bacterial pneumonia = assay: Treatment of bacterial pneumonia in a cat; format: in vivo; conditions: before the cyanogenic composition
[3] = cited from earlier work
respiratory infection = assay: Treatment of therapy resistant respiratory infection in a cat; format: in vivo; conditions: clavamox oral, five days later convenia injections
Description: A two year old domestic short hair cat, six pounds, body weight, temp 102° F. emaciated cat came from a cat holding facility and was FIV and FELV negative. Its clinical symptoms: very severe wheezing respiration, very moist cough, frequent sneezing all day beginning 10 days previously. The cat had been treated in another hospital previously with antibiotics: first, clavamox oral/contains amoxicillin and with β-lactamase-inhibiting effect clavulanic acid known as for powerful, broad-spectrum antimicrobial activity. […] CBC chemistry blood work was performed. The only abnormality was a 40% increase in Monocytes above the highest normal, and mild anemia.

[4] = Treatment of chronic suppurative prostatitis / prostate abscess in a dog; conditions: in vivo
Description: An eight year old Akita dog presented suffering from chronic, recurring prostatitis with typical clinical symptoms associated with the condition. […] This condition had worsened in the previous eight months, causing significant suffering by the pet and frustration to the dog's owner.
In the second week the dose was adjusted to 5 mg/kg inj. twice/day. […] The treatment continued in the 3rd week with 2 mg/bw kg dose twice/day.

Rhodococcus equi = assay: Antibiotic sensitivity testing of the foal's bacterial culture; format: cell-based

In the case of `CC[C@H]1OC(=O)[C@H](C)[C@@H](O[C@H]2C[C@@](C)(OC)[C@@H](O)[C@H](C)O2)[C@H](C)[C@@H](O[C@@H]2O[C@H](C)C[C@H](N(C)C)[C@H]2O)[C@](C)(O)C[C@@H](C)CN(C)[C@H](C)[C@@H](O)[C@]1(C)O` [Azithromycin], the “outcome of previous treatment” value ([1]; Azithromycin and Clavamox at therapeutic dose, about 2 weeks) is reported as “the symptoms did not abate”.
For `[H]/N=C(\N/C(=N/[H])NCCCCCCNC(=N)NC(=N)Nc1ccc(Cl)cc1)Nc1ccc(Cl)cc1` [Chlorhexidine wash, Chlorhexidine], the prevention of recurrence (Candida albicans; in vivo) was “no effect”.
In the case of `[Cl-].[Na+]` [Table salt], the LD50 [2] is listed as 300 mg/kg.
In the case of `Nc1nc2c(ncn2COCCO)c(=O)[nH]1` [Zovirax, acyclovir], the “blister size in diameter” value (herpes simplex labialis; treatment begun at first sign of an outbreak) is reported as “about 4 mm” and the “duration of the outbreak” value (herpes simplex labialis; untreated approximately 7-9 days) is reported as “about 5 days”.
In the case of `NCC[C@H](O)C(=O)N[C@@H]1C[C@H](N)[C@@H](O[C@H]2O[C@H](CN)[C@@H](O)[C@H](O)[C@H]2O)[C@H](O)[C@H]1O[C@H]1O[C@H](CO)[C@@H](O)[C@H](N)[C@H]1O` [amikacin], the MIC (Pseudomonas Aeruginosa; Pseudomonas aeruginosa) is reported as no more than 8 µg/mL and the sensitive / resistant (Pseudomonas Aeruginosa; ear swab isolate) is reported as “S”.
With `CC1(C)S[C@@H]2[C@H](NC(=O)[C@H](N)c3ccc(O)cc3)C(=O)N2[C@H]1C(=O)O` [amoxicillin] the “outcome of previous treatment” value (bacterial pneumonia) was “slight improvement followed by a relapse” and the sensitive / resistant (Pseudomonas Aeruginosa; ear swab isolate) was “R”.
With `CC1(C)S[C@@H]2[C@H](NC(=O)[C@H](N)c3ccccc3)C(=O)N2[C@H]1C(=O)O` [ampicillin] the sensitive / resistant (Pseudomonas Aeruginosa; ear swab isolate) was “R”.
In the case of `N#C[C@H](O[C@@H]1O[C@H](CO[C@@H]2O[C@H](CO)[C@@H](O)[C@H](O)[C@H]2O)[C@@H](O)[C@H](O)[C@H]1O)c1ccccc1` [amygdalin], the LD50 ([3]; literature) is listed as “about 900 mg/body weight kg” and the “LD 50 of oral amygdalin” value ([3]; oral, scientific literature) is listed as 400 to 900 mg/kg.
For `CC(=O)Oc1ccccc1C(=O)O` [aspirin], the LD50 [2] is listed as 200 to 1200 mg/kg.
With `Cc1nnc(SCC2=C(C(=O)O)N3C(=O)[C@@H](NC(=O)Cn4cnnn4)[C@H]3SC2)s1` [cefazolin] the sensitive / resistant (Pseudomonas Aeruginosa; ear swab isolate) was “R”.
With `CO/N=C(/C(=O)N[C@@H]1C(=O)N2C(C(=O)O)=C([C@@H]3CCCO3)CS[C@H]12)c1csc(N)n1` [cefovecin] the sensitive / resistant (Pseudomonas Aeruginosa; ear swab isolate) was “R”.
In the case of `CO[C@@]1(NC(=O)Cc2cccs2)C(=O)N2C(C(=O)O)=C(COC(N)=O)CS[C@@H]21` [cefoxitin], the MIC (Pseudomonas Aeruginosa; Pseudomonas aeruginosa) is reported as no less than 32 µg/mL and the sensitive / resistant (Pseudomonas Aeruginosa; ear swab isolate) is reported as “R”.
In the case of `COCC1=C(C(=O)O)N2C(=O)[C@@H](NC(=O)/C(=N\OC)c3csc(N)n3)[C@H]2SC1` [cefpodoxime], the MIC (Pseudomonas Aeruginosa; Pseudomonas aeruginosa) is reported as no less than 8 µg/mL and the sensitive / resistant (Pseudomonas Aeruginosa; ear swab isolate) is reported as “R”.
With `CO/N=C(\C(=O)N[C@@H]1C(=O)N2C(C(=O)O)=C(CSC(=O)c3ccco3)CS[C@H]12)c1csc(N)n1` [ceftiofur] the MIC (Pseudomonas Aeruginosa; Pseudomonas aeruginosa) was no less than 8 µg/mL and the sensitive / resistant (Pseudomonas Aeruginosa; ear swab isolate) was “R”.
For `CC1=C(C(=O)O)N2C(=O)[C@@H](NC(=O)[C@H](N)c3ccc(O)cc3)[C@H]2SC1` [cephadroxil], the sensitive / resistant (Pseudomonas Aeruginosa; ear swab isolate) was “R”.
For `CC1=C(C(=O)O)N2C(=O)[C@@H](NC(=O)[C@H](N)c3ccccc3)[C@H]2SC1` [cephalexin], the sensitive / resistant (Pseudomonas Aeruginosa; ear swab isolate) was “R”.
With `CO/N=C(/C(=O)N[C@@H]1C(=O)N2C(C(=O)[O-])=C([C@@H]3CCCO3)CS[C@H]12)c1csc(N)n1.[Na+]` [convenia] the “outcome of previous antibiotic treatment” value (respiratory infection) was “the condition continued to worsen”.
With `CCN1CCN(c2cc3c(cc2F)c(=O)c(C(=O)O)cn3C2CC2)CC1` [enrofloxacin] the “outcome of previous antibiotic treatment” value [4] was “only temporary mild improvement, followed by a quick relapse”, the MIC (Pseudomonas Aeruginosa; Pseudomonas aeruginosa) was no more than 0.5 µg/mL and the sensitive / resistant (Pseudomonas Aeruginosa; ear swab isolate) was “S”. The “outcome of previous treatment” value ([1]; switched to Enrofloxacin, Clavomox continued) was “the symptoms continued to worsen”.
In the case of `CC[C@H]1OC(=O)[C@H](C)[C@@H](O[C@H]2C[C@@](C)(OC)[C@@H](O)[C@H](C)O2)[C@H](C)[C@@H](O[C@@H]2O[C@H](C)C[C@H](N(C)C)[C@H]2O)[C@](C)(O)C[C@@H](C)C(=O)[C@H](C)[C@@H](O)[C@]1(C)O` [erythromycin], the antibiotic sensitivity (Rhodococcus equi) is reported as “resistance”.
In the case of `Clc1ccccc1C(c1ccccc1)(c1ccccc1)n1ccnc1` [lotrimazole], the “outcome of previous treatment” value (Candida albicans; oral capsule and cream 5-7 days, infection again after 3-6 months) is reported as “good symptomatic response”.
For `CN1CCN(c2c(F)cc3c(=O)c(C(=O)O)cn4c3c2OCN4C)CC1` [marbofloxacin], the MIC (Pseudomonas Aeruginosa; Pseudomonas aeruginosa) was no more than 1 µg/mL and the sensitive / resistant (Pseudomonas Aeruginosa; ear swab isolate) was “S”.
For `CO[C@H]1/C=C/O[C@@]2(C)Oc3c(C)c(O)c4c(O)c(c(/C=N/N5CCN(C)CC5)c(O)c4c3C2=O)NC(=O)/C(C)=C\C=C\[C@H](C)[C@H](O)[C@@H](C)[C@@H](O)[C@@H](C)[C@H](OC(C)=O)[C@@H]1C` [rifampin], the antibiotic sensitivity (Rhodococcus equi) was “resistance”.
In the case of gentamicin, the sensitive / resistant (Pseudomonas Aeruginosa; ear swab isolate) is reported as “S” and the MIC (Pseudomonas Aeruginosa; ear swab isolate, heavy growth) is reported as “<= 2 ug/ml”.
